The test system of one data set is E. coli DH10B cells. To be noted: in vivo NMR cell samples.
The test system of data set [1] is evolved tfmPhe MjTyrRS/tRNATyrCUA. The data set is described as follows: Incorporation into protein in response to TAG codon with tfmPhe synthetase, SDS-PAGE. It is filed as cell-based, Methanococcus jannaschii. To be noted: E. coli, amino acid added to the media.
Text: The two top performing synthetases were subcloned into the pDule vector (pDule-tfmPhe1 and pDule-tfmPhe2) for further analysis of a protein containing tfmPhe. The medium copy pDule plasmid is designed to contain both the tRNA^TyrCUA and new synthetase allowing a standard high copy protein expression plasmid for use in production of tfmPhe containing protein.
Selection of tfmPhe specific tRNA-aminoacyl synthetase. A library of tRNA-aminoacyl synthetases was encoded on a kanamycin (Kn) resistant plasmid, pBK-JM-Lib, under control of the constitutive E. coli GlnRS promoter and terminator. The library was transformed by electroporation into DH10B E. coli containing the tetracycline (Tet) resistant positive selection plasmid, pREP2/YC-JYCUA. The positive selection plasmid encodes a mutant tRNA^TyrCUA, an amber disrupted chloramphenicol acetyltransferase, and an amber disrupted T7 RNA polymerase that drives the production of green fluorescent protein. The first positive selection was performed in the presence of 1 mM tfmPhe, 70 μg/mL chloramphenicol (Cm), 50 μg/mL Kn, and 25 μg/mL Tet in a modified GMML media at 37° C. with 250 rpm shaking until the OD was >1.0. Plasmid DNA was extracted and pBK-JM-Lib was separated from pREP2/YC-JYCUA by agarose gel electrophoresis. […]
The next data set deals with T1, pBpa MjTyrRS/tRNATyrCUA (Methanocaldococcus jannaschii, UniProt Q57834, D158T/E107P/I159S/Q56R/V103L/Y32G).
T1 construct: expressed in transfected cells; host or cells: E. coli carrying pDULE-pBpa
As to the kind of experiment: Incorporation into protein in response to TAG codon with pBpa synthetase, SDS-PAGE. It is filed as cell-based, Methanococcus jannaschii. To be noted: E. coli, amino acid added to the media, pBpa synthetase (SEQ ID NO: 7). The source says:
Incorporation of additional ^19F amino acids with p-benzoyl-phenylalanine (pBpa) synthetase. Using a synthetase known to selectively incorporate pBpa (SEQ ID NO: 7), other ^19F amino acids of similar shape and electrostatics may be incorporated site-specifically into proteins.
Analysis of incorporation of p-fluorobenzoylphenylalanine into protein response to a TAG stop codon in E. coli with evolved pBpa MjTyrRS/tRNA TyrCUA by SDS-PAGE.
(§1) To improve the incorporation efficiency of dfBpa, the active site of pBpa MjTyrRS was altered to better accommodate the slightly larger dfBpa amino acid. Amino acids in the active site (Ser159, Leu65) were reduced in size or reduced in polarity to better accept dfBpa.
(§2) Analysis of fluorinated pBpa-protein by SDS-PAGE.

The target of data set [2] is T2, modified pBpa MjTyrRS/tRNATyrCUA (Methanocaldococcus jannaschii, UniProt Q57834, D158T/E107P/I159A/L65V/Q56R/V103L/Y32G).
T2 construct: expressed in transfected cells; host or cells: E. coli
The data set is described as follows: Incorporation into protein in response to TAG codon with modified pBpa synthetase (Ser159Ala, Leu65Val), SDS-PAGE. It is filed as cell-based, Methanococcus jannaschii. The settings on record: E. coli, modified pBpa synthetase (SEQ ID NO: 8), Ser159Ala and Leu65Val.
Text: as §1, §2

A further data set has as its system HDH. The data set is described as follows: Photo crosslinking of protein upon ultraviolet irradiation, SDS-PAGE. The settings on record: amino acid incorporated in protein. The source says:
The amino acid pBpa in a protein may be used to determine the structural organization of the protein and conformational changes by initiating crosslinking with nearby peptides via externally provided ultraviolet irradiation. […] The time course of HDH-225pBpa and HDH-225-dfBpa during irradiation was studied by SDS-PAGE.

The structures appear in SMILES notation. Entries after “also recorded” stand apart in the source; their conditions may differ.

T2 sequence (Q57834 whole entry Y32G/Q56R/L65V/V103L/E107P/D158T/I159A): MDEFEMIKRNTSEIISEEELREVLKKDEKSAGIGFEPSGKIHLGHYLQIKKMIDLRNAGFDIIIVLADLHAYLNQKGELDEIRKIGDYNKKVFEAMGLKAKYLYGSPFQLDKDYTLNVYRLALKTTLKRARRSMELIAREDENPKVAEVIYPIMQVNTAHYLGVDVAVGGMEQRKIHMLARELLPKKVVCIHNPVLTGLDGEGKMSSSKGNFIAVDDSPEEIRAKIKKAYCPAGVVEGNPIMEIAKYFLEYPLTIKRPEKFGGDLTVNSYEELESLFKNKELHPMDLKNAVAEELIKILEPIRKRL
T1 sequence (Q57834 whole entry Y32G/Q56R/V103L/E107P/D158T/I159S): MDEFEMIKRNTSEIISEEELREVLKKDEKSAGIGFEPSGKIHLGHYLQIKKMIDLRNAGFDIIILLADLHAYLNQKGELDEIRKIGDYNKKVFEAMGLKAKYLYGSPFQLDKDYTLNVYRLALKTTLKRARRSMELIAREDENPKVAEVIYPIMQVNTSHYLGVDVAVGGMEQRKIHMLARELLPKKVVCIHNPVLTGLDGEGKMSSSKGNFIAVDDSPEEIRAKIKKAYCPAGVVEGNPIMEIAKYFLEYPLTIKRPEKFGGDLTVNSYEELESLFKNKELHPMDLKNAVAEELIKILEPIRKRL
Protocol for E. coli DH10B cells: Labeled NTR was also monitored in vivo.
E. coli DH10B cells containing pDule-tfmPhe1 and pTrc-NTR-124TAG or pTrc-NTR-36TAG were grown in modified minimal media containing supplemented flavin at 10 μM and induced to produce protein with 1.0 mM IPTG at an OD of 0.8. […] Cells were harvested 18 hrs after induction by centrifugation and stored at −80° C. Cells (from 0.5 L of media) for in vivo NMR measurements were thawed on ice, resuspended in 50 mL of PBS buffer (10 mM NaH2PO4, 140 mM NaCl pH 7.8) at 0° C., and repelleted by centrifugation at 5000 g. The cells for in vivo NMR spectra shown for NTR-tfmPhe-36 and NTR-tfmPhe-124 were washed 3 times and 5 times respectively.
NMR data were collected using a Varian Unity INOVA 500 MHz spectrometer fitted with a 5 mm broadband probe. The proton coil was tuned to fluorine frequency (470.114 MHz). Standard decoupling parameters were used with a 100,000 Hz spectral width, 9 μs pulse length (approximately 45°), 2.00 s acquisition time, and 1.00 s relaxation delay. A 10 Hz line broadening was applied and all spectra were recorded at 25±0.2° C. All spectra were locked and referenced to an internal standard containing 0.2% solution of 4-fluorotoluene in toluene-d8 (set at −120.771 ppm referenced from trifluorotoluene at −65.000 ppm). […]

As to `NC(=O)C1=CN([C@@H]2O[C@H](COP(=O)(O)OP(=O)(O)OC[C@H]3O[C@@H](n4cnc5c(N)ncnc54)[C@H](O)[C@@H]3O)[C@@H](O)[C@H]2O)C=CC1` [NADH, reduced nicotinamide adenine dinucleotide], the cell permeability result in the data set with E. coli DH10B cells is given as “poor cell permeability”.
Consider `Cc1ccc(C[C@H](N)C(=O)O)cc1F` [compound 4, 4-methyl-3-fluorophenylalanine], for which the “incorporation into protein in response to TAG codon” value (from here on “incorporation into protein”) in data set [1] is reported as “incorporated in the location coded by TAG; also recorded: full length HDH was produced containing 4”.
With `N[C@@H](Cc1ccc(C(=O)c2c(F)cccc2F)cc1)C(=O)O` [compound 6, 2′,6′-difluoro-p-benzoylphenylalanine], the “incorporation into protein” value is “incorporated in the location coded by TAG; also recorded: less effectively than pBpa or 7” at pBpa MjTyrRS/tRNATyrCUA, “full length HDH was produced containing dfBpa” on pBpa MjTyrRS/tRNATyrCUA (listed as dfBpa) and “high efficiency; also recorded: length HDH was produced containing dfBpa” in data set [2] (listed as dfBpa). Also, in the data set on HDH, the crosslinking upon irradiation entry was “shown to crosslink upon irradiation”.
For `O=C(N[C@@H](Cc1ccc(F)cc1)C(=O)O)c1ccccc1` [compound 7, p-fluorobenzoylphenylalanine], the “incorporation into protein” value at pBpa MjTyrRS/tRNATyrCUA was “incorporated in the location coded by TAG”; on pBpa MjTyrRS/tRNATyrCUA (listed as pfBpa), “full length HDH was produced containing pfBpa”. The crosslinking upon irradiation result in the data set on HDH was “shown to crosslink upon irradiation”.
Take `O=C(O)c1cccnc1` [nicotinic acid]: the cell permeability entry in the data set with E. coli DH10B cells is “poor cell permeability”.
Regarding `N[C@@H](Cc1ccc(C(=O)c2ccccc2)cc1)C(=O)O` [pBpa, p-benzoyl-phenylalanine, reference compound], the “incorporation into protein” value is recorded as “full length HDH was produced containing pBpa” at pBpa MjTyrRS/tRNATyrCUA and “high efficiency; also recorded: full length HDH was produced containing pBpa” in data set [2].

The record behind these values is patent US20070218483A1, “SITE-SPECIFIC INCORPORATION OF FLUORINATED AMINO ACIDS INTO PROTEINS” (FRANKLIN AND MARSHALL COLLEGE, priority 2006, published 2007).
